pIC50: −log10 of the molar value.

The experiment concerns the target Induced myeloid leukemia cell differentiation protein Mcl-1 (Homo sapiens) (UniProt Q07820). Briefly: Mcl-1 Noxa peptide disruption concentration-response – biochemical, TR-FRET, dose response (AID 1417). As to conditions: Mcl-1/Noxa peptide interaction, cell-free TR-FRET (terbium/rhodamine), 2 h; measured here: absolute IC50.

Induced myeloid leukemia cell differentiation protein Mcl-1 (Homo sapiens), sequence (Q07820 whole entry, looked up): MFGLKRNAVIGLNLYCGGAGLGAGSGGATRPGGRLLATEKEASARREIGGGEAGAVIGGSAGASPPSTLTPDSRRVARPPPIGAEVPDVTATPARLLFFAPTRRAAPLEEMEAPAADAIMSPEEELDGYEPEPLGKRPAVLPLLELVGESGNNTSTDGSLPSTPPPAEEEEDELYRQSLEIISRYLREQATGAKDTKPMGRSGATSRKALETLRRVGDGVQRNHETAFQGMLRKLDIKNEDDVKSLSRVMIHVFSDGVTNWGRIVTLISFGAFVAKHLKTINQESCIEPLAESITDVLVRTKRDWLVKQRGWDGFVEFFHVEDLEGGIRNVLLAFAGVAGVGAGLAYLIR

Consider `O=C(NCc1ccccc1)c1ccc2nc(-c3ccco3)c(-c3ccco3)nc2c1`, for which the negative-log IC50 (pIC50) (usually the negative decadic logarithm of the IC50, by convention in mol/L) was 5.64.
With `Cc1cccc(C(=O)N=c2c(C#N)cc3c(=O)n4cccc(C)c4nc3n2Cc2ccco2)c1` the figure was 5.37.
To `CCC(=O)NC1=C(Cl)C(=O)C(NC(=O)CC)=C(Cl)C1=O` belongs over 6.40.
To `CC1CCCCC12NC(=O)N(CC(=O)Nc1sc3c(c1C(N)=O)CCC3)C2=O` (configuration not stated) belongs 5.40; to `COc1ccccc1C1NC=C([N+](=O)[O-])C=C1[N+](=O)[O-]` (configuration not stated), under 4.27.
For the compound `O=C(CSc1nnc(SCc2ccccc2)s1)N/N=C/C=C/c1ccco1`, the negative-log IC50 (pIC50) was 5.31.
Compound `CCOc1cc(/C=N/NC(=O)c2ccc(-c3csc(Nc4ccc(C)cc4)n3)cc2)ccc1OCC(=O)O` showed a negative logarithm of the IC50 (pIC50) of 5.97.
To `COC(=O)c1ccc2nc(Nc3nc4ccc(F)cc4s3)sc2c1` belongs 5.76; to `Oc1ccc(Br)cc1-c1cc(-c2ccc(Cl)cc2)n[nH]1`, 5.77.
With `O=C(CCN1C(=O)S/C(=C\c2ccccc2)C1=O)Nc1ccc(S(=O)(=O)Nc2nccs2)cc1` the figure was 5.12; with `COc1cccc(C(=O)Nc2ccc3nc(N4CCN(c5ncccn5)CC4)cc(C)c3c2)c1OC`, 5.09.
With `CC(=O)c1ccc(NC(=O)CSc2ccsc2[N+](=O)[O-])cc1` the figure was under 4.27; with `O=C(Nc1ccc(N2CCCC2)cc1)c1ccc2ccccc2c1`, 5.30.
`Cc1[nH]n(-c2ncc(-c3ccccc3)s2)c(=O)c1C(c1ccc(Cl)cc1)C(C#N)C#N` (configuration not stated) had a negative logarithm of the IC50 (pIC50) of 4.92.
To `Cc1ccccc1/C=N/Nc1ccnc2cc(Cl)ccc12` belongs 5.18; to `Oc1[nH]c2ccccc2c1N=Nc1nc2ccccc2s1`, 5.30; to `O=C(O)c1cc(N2N=C(C(F)(F)F)/C(=C/C=C/c3ccco3)C2=O)ccc1Cl`, over 6.40.
To `COc1ccc2[nH]c3c(=O)n(Cc4ccc(C(=O)N5CCCC5)cc4)c(=S)[nH]c3c2c1` belongs under 4.27; to `CCN1C(=O)C(C)S/C1=N\S(=O)(=O)c1ccc(F)cc1` (configuration not stated), under 4.27; to `Oc1ccc(/C=N/Nc2ccnc3cc(Cl)ccc23)c(O)c1`, over 6.40.
`COc1ccc(CCNC(=O)c2ccc3nc(-c4ccco4)c(-c4ccco4)nc3c2)cc1OC` showed a pIC50 of 5.35.
With `COc1cc(/C=C2\CC/C(=C\c3cc(OC)c(O)c(OC)c3)C2=O)cc(OC)c1O` the figure was over 6.40; with `O=C(N/N=C/c1ccncc1)c1cc([N+](=O)[O-])cc([N+](=O)[O-])c1O`, 5.60; with `CCCCn1c(SCC(=O)NCCOC)nc2ccc(N3CCOCC3)cc2c1=O`, under 4.27.
To `Cc1cccc(NC(=O)CSc2nnc(-c3ccco3)c(-c3ccco3)n2)c1` belongs 5.18; to `O=C(O)CCCN1C(=O)/C(=C/c2cn(-c3ccccc3)nc2-c2cccs2)SC1=S`, 5.81; to `C/C(=N\Nc1cccc(C(=O)O)c1)c1ccc2c(c1)Nc1ccccc1S2`, over 6.40.
With `O=c1c(O)cccc2cc(O)c(O)c(O)c12` the figure was over 6.40.
Regarding `O=C1NC(=S)NC(=O)C1=Cc1ccc2c(c1)CCN2CCCCl`, the negative logarithm of the IC50 (pIC50) is over 6.40.
In the case of `S=c1[nH]nc(-c2cc(-c3ccccc3)n[nH]2)n1/N=C/c1c2ccccc2cc2ccccc12`, the pIC50 was under 4.27.
In turn, `CSc1nc(SCCO)c2sc3nc(-c4ccco4)c4c(c3c2n1)CC(C)(C)OC4` showed a pIC50 of over 6.40.
To `O=C(O)c1ccccc1-c1ccc(/C=c2\sc3nc4cc(Br)cnc4n3c2=O)o1` belongs 5.51; to `COc1ccc(OCC(=O)Nc2nnc(-c3ccco3)s2)cc1`, 5.42.
To `CN(C)c1ccc(Nc2nc(N)c([N+](=O)[O-])c(N3CCOCC3)n2)cc1` belongs over 6.40; to `CCN(c1ccc(NC(=O)COC(=O)CCc2nc3ccccc3n2-c2ccccc2)cc1)C(C)C`, over 6.40.
To `CCc1nc(Nc2ccc(N3CCN(C(C)=O)CC3)cc2)c2oc3ccccc3c2n1` belongs under 4.27; to `Cc1n[nH]c(=S)n(NC(=O)/C=C/C(=O)Nn2c(=S)[nH]nc(C)c2=O)c1=O`, over 6.40.
`CN(C)c1ccc(/C=C/c2ccc3c4ccccc4ccc3[n+]2-c2ccccc2)cc1` gave a negative-log IC50 (pIC50) of under 4.27.
For `Cn1c(SCC(=O)Nc2ccc3nc(SCC(=O)N4CCCC4)sc3c2)nnc1-c1ccccc1`, the pIC50 was 5.65.
With `O=C(/C=C/c1cccs1)N1CCN(c2ccc(O)cc2)CC1` the figure was 5.44; with `Cc1cc(NC(=O)CSc2nc(-c3ccc(F)cc3)cs2)no1`, under 4.27.
In the case of `O=C(CSc1nc2ccccc2s1)Nc1cc(S(=O)(=O)N2CCOCC2)ccc1O`, the negative-log IC50 (pIC50) is 6.14.
With `CCN(CC)c1ccc(NC2=C(Cl)C(=O)c3ccccc3C2=O)cc1` the figure was over 6.40.
On to `O=C(Nc1ccccc1)c1ccc2nc(-c3ccco3)c(-c3ccco3)nc2c1`, for which the negative-log IC50 (pIC50) is 5.42.
To `COC(=O)N/N=C/c1cc(N=Nc2ccccc2Cl)ccc1O` belongs 5.43; to `CCOC(=O)c1ccc(N=Nc2c(C)c(C#N)c(O)[nH]c2=O)cc1`, 5.55; to `CC1CCc2c(sc(Nc3nc4c(F)cccc4s3)c2C(N)=O)C1` (configuration not stated), over 6.40.
To `Cn1c(=O)c2c(nc(NCc3ccco3)n2CC(O)COc2ccccc2)n(C)c1=O` (configuration not stated) belongs under 4.27; to `CCOC(=O)c1cc(C(O)(C(=O)OC)C(F)(F)F)c(/N=C/N(C)C)o1` (configuration not stated), under 4.27; to `CN1CCc2cccc3c2[C@@H]1Cc1ccc(O)c(O)c1-3`, 6.08.
`CC1CC(=O)c2c(cc3c(-c4c(O)cc(O)c5c(O)c6c(cc45)OC(C)CC6=O)c(O)cc(O)c3c2O)O1` (configuration not stated) gave a pIC50 of over 6.40.
To `COc1ccc(-c2csc(NC(=S)NC(=O)c3cccs3)n2)cc1OC` belongs 5.48.
To `Cc1cc(C)n2c(SC/C(O)=C(\C#N)c3nc4ccccc4[nH]3)nnc2n1` belongs over 6.40; to `O=[N+]([O-])c1ccc2c(c1)N([O-])C1(CCCCC1)[N+]2=O`, over 6.40.
To `CNc1ccc(Br)cc(C(=O)/C=C/c2ccc(OC)cc2OC)c1=O` belongs 5.45; to `O=C1N=c2ccc(Br)cc2=C1c1sc(=S)n(NS(=O)(=O)c2ccccc2)c1O`, under 4.27; to `N=C1/C(=C\c2ccc(-c3cccc(C(=O)O)c3)o2)C(=O)N=C2SC=C(c3ccccc3)N12`, 5.89.
In turn, `COc1ccc(N2CCC(CNC(=O)Nc3ccc(C)c(C)c3)C2)cc1` (configuration not stated) gave a negative logarithm of the IC50 (pIC50) of under 4.27.
With `NC(=O)c1nn(CC(=O)Nc2ccc3c(c2)OCO3)cc1[N+](=O)[O-]` the figure was under 4.27; with `NC1=NC(=O)/C(=C/c2cn(CCC(=O)O)nc2-c2ccc(Cl)cc2)S1`, 5.23; with `Cc1ccc(CSc2nnc(SCC(=O)N/N=C/c3c[nH]c4ccccc34)s2)cc1`, 5.00.
Consider `Cc1cc2c(C(C)C)c(O)c(O)c(C=O)c2c(O)c1-c1c(C)cc2c(C(C)C)c(O)c(O)c(C=O)c2c1O`, for which the negative-log IC50 (pIC50) is over 6.40.
With `O=C1c2cccc3cc([N+](=O)[O-])cc(c23)C(=O)N1/N=C/c1ccc(O)cc1O` the figure was 5.82; with `COc1ccc(O)c(N)c1`, over 6.40; with `Nc1ccc(N2CCCCC2)cc1N1CCCCC1`, under 4.27.
On to `CC(/C=C1\SC(=S)N(CCCC(=O)Nc2ccc(C(=O)O)c(O)c2)C1=O)=C\c1ccccc1`, for which the negative logarithm of the IC50 (pIC50) was over 6.40.
Regarding `CCN(c1ccc(NC(=O)CCNC(=O)c2ccco2)cc1)C(C)C`, the pIC50 is under 4.27.
